# Measured values: patent US7615361B2, “Toxicity screening methods” (Ceetox, Inc., priority 2006, dated 2009)
# Legend:
# rat cardiomyocytes = experiment: MemTox membrane leakage (AK / α-GST); type: cell-based; conditions: rat, 24 hr
# Outline: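 Neonatal rat cardiomyocytes were dosed, and the culture medium was collected at the end of exposure to measure total leaked adenylate kinase (luminescence) and/or α-GST (ELISA, 450/650 nm). Percent dead cells was set against 1 mM digitonin as maximum release, then converted to percent live. Values are means of n=3-7.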
# H4IIE cells = experiment: MTT reduction; type: cell-based, rat; conditions: rat, 24 h
# Outline: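 Rat hepatoma H4IIE cells exposed to compound prepared in complete culture medium, with tetrazolium dye (MTT) reduction used as a mitochondrial-function read-out of cytotoxicity. Values are means of each exposure group (n=3-7).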
# [1] = MemTox membrane leakage (AK / α-GST); type: cell-based; conditions: human, HUVEC, read-out: MemTox TC50
# Method: Membrane Leakage (α-Glutathione S-transferase and/or Adenylate Kinase): The presence of Adenylate Kinase (AK) or α-Glutathione S-transferase (α-GST), both enzyme leakage markers, was measured in the culture medium using an activity assay for Adenylate Kinase and/or an ELISA assay for α-GST. At the end of the exposure period, the medium covering the cells in each well was removed and placed into new 96-well plates with appropriate labeling. […] Luminescence (AK) values were measured with a Packard Fusion or equivalent plate reader, and absorbance (α-GST) values were measured with a Packard SpectraCount™ or equivalent reader at 450 nm and reference absorbance at 650 nm.
# Membrane Leakage (α-Glutathione S-transferase and/or Adenylate Kinase): Leakage of Adenylate Kinase or α-GST from the cell into the culture medium was determined by collecting the culture medium at the end of the exposure period. Thus, the values measured represent total enzyme leakage lost over the exposure period. The control for 100% dead or maximum enzyme release was based on cells treated with 1 mM digitonin at the time of dosing. Percent dead cells relative to digitonin treated cells was determined and then subtracted from 100% to yield the percent live cells.
# Dosing solutions were prepared in complete culture medium.
# C32 cells = experiment: Predicted Ctox from Tox-Panel; type: cell-based, human; conditions: C32, 24 HR
# Method: Studies such as these indicate that a preferred concentration for setting Ctox is the highest concentration at which there is no observed effect on any of the indicators being measured in the cluster analysis, especially a 24-hour cluster analysis. […] It will be apparent that 24 hour assays are more time-effective, and consequently, the 24 hour NOEL/Ctox represents a preferred data point to select as Ctox in a CATS assay. It will also be apparent that, with further time studies, it may be possible to select an equally suitable Ctox at other CATS assay time points (e.g., between 24 and 72 hours, or less than 24 hours).
# In certain embodiments, the predicting comprises performing concentration response analyses of measurements from at least three separate assays that are employed in the cluster analysis. For example, in the cell health cluster, such predicting will involve monitoring the concentration response effect of the compound on a first health indicator which monitors cellular replication, a second cell health indicator which monitors mitochondrial function, and a third cell health indicator which monitors membrane integrity. Of course, it is understood that fourth, fifth, sixth or more cell health indicators also may be employed. From these concentration response analyses, the highest concentration of the chemical compound at which a measurable toxic effect of the chemical compound is not observable, i.e. NOEL, is determined and the Ctox is identified as the concentration that correlates to the NOEL. In choosing the concentrations of the compound for analysis, one of skill in the art should devise a dose response regimen which is selected to provide an indication of cell health at concentrations of at least two concentration values higher than the Ctox concentration.
# The results are summarized in Tables 14-17 and in FIGS. 83-102. Table 14 compares the test compound TC50 values for each assay endpoint. Test compounds are rank-ordered from most to least toxic based on their TC50 values and overall shape of the response curves. The Ctox value, or estimated sustained blood concentration where toxicity would first be expected to occur in a rat 14-day repeated dose study, is also included in this table. Negative and positive controls are included with every run. Assay response is continually monitored to assure reliable results. […] Table 15 summarizes oxidative stress and apoptosis data, Table 16 summarizes the solubility data, and Table 17 provides information on interaction with PgP.
# The Ctox value was developed using 24 hr in vitro (H4IIE) toxicity data and was validated by retrospectively evaluating compounds across different classes of drugs in 14-day rat studies in which compounds were administered on a daily basis and pharmacokinetic data was available. […] Thus, Ctox values are only determined for the 24 hr in vitro results. In this example, Ctox values could not be estimated due to low toxicity in most of the cell lines.
# human hepatocytes = experiment: Caspase 3 activity (apoptosis); type: cell-based; conditions: 24 HR
# Method: Caspase 3 Procedure: Caspase 3 activity was determined using a caspase substrate (DEVD, Asp-Glu-Val-Asp) labeled with a fluorescent molecule, 7-Amino4-methylcoumarin (AMC). Caspase 3 cleaves the tetrapeptide between D and AMC, thus releasing the fluorogenic […] AMC. Following the test article exposure to cells in 96-well plates, medium was aspirated from plates and PBS added to each well. Plates were stored at −80° C. to lyse cells and store samples until further analysis. On the day of analysis, plates were removed from freezer and thawed. Caspase buffer with fluorescent substrate was added to each well and incubated at room temperature for 1 hr. AMC release was measured in a spectrofluorometer at an excitation wavelength of 360 nm and an emission wavelength of 460 nm. Values are expressed as relative fluorescent units (RFU).
# Caspase Activity: After sample plates were completely thawed, the caspase substrate buffer mix was added to each plate. Plates were incubated at room temperature for 1hr, shielded from light. Plates were read using a in a spectrofluorometer at an excitation wavelength of 360 nm and an emission wavelength of 460 nm. Values were expressed as relative fluorescent units (RFU).
# The apoptosis data is expressed in Table 2 as a ratio of the magnitude of response versus the exposure concentration that produced the response. […]
SMILES,more potent in the heart cells than in liver cells (cell death as marker) (rat cardiomyocytes),CC50 (H4IIE cells) [µM],MTT affected less in liver cells compared to myocytes (H4IIE cells),CC50 at 24 h [1] [µM],Predicted Ctox (C32 cells) [µM],Caspase 3 Activity (Index/Dose): Index (human hepatocytes),Caspase 3 Activity (Index/Dose): Dose (human hepatocytes; controls (μM section))
"COc1cccc2c1C(=O)c1c(O)c3c(c(O)c1C2=O)C[C@@](O)(C(=O)CO)C[C@@H]3O[C@H]1C[C@H](N)[C@H](O)[C@H](C)O1 [ADRIAMYCIN, Adriamycin]",about 2.5 fold,26,approximately 13 fold,–,–,–,–
"CC[C@@]1(O)C(=O)OCc2c1cc1n(c2=O)Cc2cc3ccccc3nc2-1 [CAMPTOTHECIN, Camptothecin]",–,–,–,13,0.1,3 (400-600 = 3),100
